Laboratory results published in US20250313572A1, “MACROCYCLIC MCL-1 INHIBITORS AND METHODS OF USE” (AbbVie Inc., priority 2017, published 2025).
pKi: −log10 of the molar value. Like-named read-outs stand apart in the source and are kept apart here. Marks after values point to notes of the source that are not given here.

How the values were obtained:
[1] = system: AMO-1 human multiple myeloma tumor cell line; assay: AMO-1 cell viability assay (CellTiter-Glo, 24 hours); type: cell-based
GST-MCL-1 = GST-MCL-1 (Homo sapiens, UniProt Q07820); assay: TR-FRET MCL-1 binding assay (competition with probe F-Bak); conditions: for Ki: MCL-1 Binding Ki (nM, 10% HS), in the presence of 10% HS (human serum); for pKi: without HS, read-out: MCL-1 Binding Ki
Sequence of GST-MCL-1 (Q07820 whole entry): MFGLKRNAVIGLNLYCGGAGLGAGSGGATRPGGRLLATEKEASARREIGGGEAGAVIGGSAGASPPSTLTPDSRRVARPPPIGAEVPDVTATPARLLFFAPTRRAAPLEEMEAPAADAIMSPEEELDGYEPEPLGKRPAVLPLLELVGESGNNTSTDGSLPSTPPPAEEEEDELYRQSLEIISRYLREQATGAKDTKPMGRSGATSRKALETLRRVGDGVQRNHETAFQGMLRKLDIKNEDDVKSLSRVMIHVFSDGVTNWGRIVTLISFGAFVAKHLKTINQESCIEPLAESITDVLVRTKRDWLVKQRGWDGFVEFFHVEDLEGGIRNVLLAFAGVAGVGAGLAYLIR
Procedure, shortened: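 Displacement of F-Bak from GST-MCL-1 is detected by time-resolved FRET with a Tb-labelled anti-GST antibody, with excitation 340/35 nm and emission 520/525 and 495/510 nm, after 2 hours at room temperature. Compounds were titrated in 11 three-fold steps starting at 25 μM final, in buffer alone or in 10% HS.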

AMO-1 xenograft = AMO-1 xenograft model of multiple myeloma; type: in vivo, female SCID/bg mice; conditions: 25 mg/kg/day, IP/QDx1
Method: Tumors were size matched at approximately 200 mm^3. […] Tumor volume was estimated two to three times weekly. […] Seven or eight mice were housed per cage. Food and water were available ad libitum.
Tumor growth inhibition is calculated by 100*(1−Tv/Cv) where Tv and Cv are the mean tumor volumes of the treated and control groups, respectively.

[2] = system: NCI-H929 human multiple myeloma tumor cell line; assay: NCI-H929 cell viability assay (CellTiter-Glo, 24 hours); type: cell-based
[3] = Homo sapiens, AMO1, 24 h, read-out: AMO-1 Viability IC50 (μM, 10% FBS), 10% FBS, 24 hours of compound treatment
[4] = Homo sapiens, NCI-H929, 24 h, read-out: H929 Viability IC50 (μM, 10% FBS), 10% FBS, 24 hours of compound treatment

Structure (SMILES)	IC50 [1, 3] [nM]	Ki (GST-MCL-1) [nM]	pKi (GST-MCL-1)	TGD (%) (AMO-1 xenograft)	TGImax (%) (AMO-1 xenograft)	IC50 [2, 4] [µM]	IC50 ([1]; read-out: AMO-1 Viability IC50 (μM, 10% FBS), 10% FBS, 24 hours of compound treatment) [nM]	IC50 ([2]; read-out: H929 Viability IC50 (μM, 10% FBS), 10% FBS, 24 hours of compound treatment) [µM]
COCCOCCOCCOCCN1CCN(C[C@@H]2COc3ccc(OCc4ccnc(-c5ccccc5OC)n4)c(c3)C[C@H](C(=O)O)Oc3ncnc4sc(-c5ccc(F)cc5)c(c34)-c3ccc(c(Cl)c3C)O2)CC1 (atropisomer, axis not shown) [Example 4, (7R,16R,21S)-19-chloro-1-(4-fluorophenyl)-10-{[2-(2-methoxyphenyl)pyrimidin-4-yl]methoxy}-20-methyl-16-{[4-(2,5,8,11-tetraoxatridecan-13-yl)piperazin-1-yl]methyl}-7,8,15,16-tetrahydro-18,21-etheno-13,9-(metheno)-6,14,17-trioxa-2-thia-3,5-diazacyclononadeca[1,2,3-cd]indene-7-carboxylic Acid]	7	0.052	11.15	33* %	54* %	0.011	–	–
COCCOCCOCCN1CCN(C[C@@H]2COc3ccc(OCc4ccnc(-c5ccccc5OC)n4)c(c3)C[C@H](C(=O)O)Oc3ncnc4sc(-c5ccc(F)cc5)c(c34)-c3ccc(c(Cl)c3C)O2)CC1 (atropisomer, axis not shown) [Example 5, (7R,16R,21S)-19-chloro-1-(4-fluorophenyl)-16-[(4-{2-[2-(2-methoxyethoxy)ethoxy]ethyl}piperazin-1-yl)methyl]-10-{[2-(2-methoxyphenyl)pyrimidin-4-yl]methoxy}-20-methyl-7,8,15,16-tetrahydro-18,21-etheno-13,9-(metheno)-6,14,17-trioxa-2-thia-3,5-diazacyclononadeca[1,2,3-cd]indene-7-carboxylic Acid]	4	0.057	11.05	17* %	55* %	0.008	–	–
COCCOCCOCCOCCOCCOCC1(C)CC=C(c2nccc(COc3ccc4cc3C[C@H](C(=O)O)Oc3ncnc5sc(-c6ccc(F)cc6)c(c35)-c3c(C)c(Cl)c(c(Cl)c3C)O[C@H](CN3CCN(C)CC3)CO4)n2)CC1 (single isomer, unassigned) [Example 84, (7R,16R)-19,23-dichloro-1-(4-fluorophenyl)-10-({2-[(4R*)-4-(2,5,8,11,14,17-hexaoxaoctadecan-1-yl)-4-methylcyclohex-1-en-1-yl]pyrimidin-4-yl}methoxy)-20,22-dimethyl-16-[(4-methylpiperazin-1-yl)methyl]-7,8,15,16-tetrahydro-18,21-etheno-13,9-(metheno)-6,14,17-trioxa-2-thia-3,5-diazacyclononadeca[1,2,3-cd]indene-7-carboxylic Acid]	0.175	0.232	10.48	33* %	71* %	0.000528	–	–
COCCOCCOCC1(F)CC=C(c2nccc(COc3ccc4cc3C[C@H](C(=O)O)Oc3ncnc5sc(-c6ccc(F)cc6)c(c35)-c3c(C)c(Cl)c(c(Cl)c3C)O[C@H](CN3CCN(C)CC3)CO4)n2)CC1 (single isomer, unassigned) [Example 87, (7R,16R)-19,23-dichloro-10-({2-[(4R*)-4-fluoro-4-{[2-(2-methoxyethoxy)ethoxy]methyl}cyclohex-1-en-1-yl]pyrimidin-4-yl}methoxy)-1-(4-fluorophenyl)-20,22-dimethyl-16-[(4-methylpiperazin-1-yl)methyl]-7,8,15,16-tetrahydro-18,21-etheno-13,9-(metheno)-6,14,17-trioxa-2-thia-3,5-diazacyclononadeca[1,2,3-cd]indene-7-carboxylic Acid]	–	0.068	11.40	158* %	99* %	–	0.0959	0.000253
